According to PubChem BioAssay AID1845201 (Molecular Pharmacology Branch, DTP, NCI, 2023):

System: COR L88 complex tumor spheroid viability
Test: Anticancer human tumor COR L88 cell line growth inhibition;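 further: compound exposure lasted 7 days before viability readout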;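 on viability, T/C: percent of DMSO vehicle-treated spheroids = 100%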
Conditions: for IC50: curve of first compound; for viability, T/C: stronger effect = lower value
In short: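 Complex tumor spheroids combined malignant cells with endothelial cells and mesenchymal stem cells. DNA-damaging drugs and DNA repair inhibitors were tested alone and in combination, at half-log dilutions down from clinical Cmax (top 10 microM if Cmax unknown), 0.25% DMSO final.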

[1] = second compound 30 pM, first compound 0.0316 µM
[2] = second compound 30 pM, first compound 0.1 µM
[3] = second compound 30 pM, first compound 0.316 µM
[4] = second compound 30 pM, first compound 1 µM
[5] = second compound 30 pM, first compound 3.16 µM
[6] = second compound 30 pM, first compound 10 µM
[7] = second compound 94.9 pM, first compound 0.0316 µM
[8] = second compound 94.9 pM, first compound 0.1 µM
[9] = second compound 94.9 pM, first compound 0.316 µM
[10] = second compound 94.9 pM, first compound 1 µM
[11] = second compound 94.9 pM, first compound 3.16 µM
[12] = second compound 94.9 pM, first compound 10 µM
[13] = second compound 0.0003 µM, first compound 0.0316 µM
[14] = second compound 0.0003 µM, first compound 0.1 µM
[15] = second compound 0.0003 µM, first compound 0.316 µM
[16] = second compound 0.0003 µM, first compound 1 µM
[17] = second compound 0.0003 µM, first compound 3.16 µM
[18] = second compound 0.0003 µM, first compound 10 µM
[19] = second compound 0.000949 µM, first compound 0.0316 µM
[20] = second compound 0.000949 µM, first compound 0.1 µM
[21] = second compound 0.000949 µM, first compound 0.316 µM
[22] = second compound 0.000949 µM, first compound 1 µM
[23] = second compound 0.000949 µM, first compound 3.16 µM
[24] = second compound 0.000949 µM, first compound 10 µM
[25] = second compound 0.003 µM, first compound 0.0316 µM
[26] = second compound 0.003 µM, first compound 0.1 µM
[27] = second compound 0.003 µM, first compound 0.316 µM
[28] = second compound 0.003 µM, first compound 1 µM
[29] = second compound 0.003 µM, first compound 3.16 µM
[30] = second compound 0.003 µM, first compound 10 µM

For `Cc1sc2c(c1C)C(c1ccc(Cl)cc1)=NC(CC(=O)Nc1ccc(O)cc1)c1nnc(C)n1-2` (stereo not given) + CC[C@@]1(O)C(=O)OCc2c1cc1n(c2=O)Cc2cc3c(CN(C)C)c(O)ccc3nc2-1, the IC50 (second compound 0.003 µM) was 406 nM, the IC50 (second compound 0.00949 µM) was 441 nM and the IC50 (second compound 0.03 µM) was 531 nM. The IC50 (second compound 0.0949 µM) was 185 nM, the IC50 (second compound 0.3 µM) was 70.9 nM and the viability, T/C (second compound 0.003 µM, first compound 0.00949 µM) was 107%. It also gave a viability, T/C (second compound 0.003 µM, first compound 0.03 µM) of 82.7%, a viability, T/C (second compound 0.003 µM, first compound 0.0949 µM) of 100% and a viability, T/C (second compound 0.003 µM, first compound 0.3 µM) of 59.9%. It also gave a viability, T/C (second compound 0.003 µM, first compound 0.949 µM) of 23.6%, a viability, T/C (second compound 0.003 µM, first compound 3 µM) of 15.1% and a viability, T/C (second compound 0.00949 µM, first compound 0.00949 µM) of 81.8%. It also gave a viability, T/C (second compound 0.00949 µM, first compound 0.03 µM) of 92.6%, a viability, T/C (second compound 0.00949 µM, first compound 0.0949 µM) of 104% and a viability, T/C (second compound 0.00949 µM, first compound 0.3 µM) of 64.2%. The viability, T/C (second compound 0.00949 µM, first compound 0.949 µM) was 23.7%, the viability, T/C (second compound 0.00949 µM, first compound 3 µM) was 13.3% and the viability, T/C (second compound 0.03 µM, first compound 0.00949 µM) was 71.2%. The viability, T/C (second compound 0.03 µM, first compound 0.03 µM) was 88.7%, the viability, T/C (second compound 0.03 µM, first compound 0.0949 µM) was 106% and the viability, T/C (second compound 0.03 µM, first compound 0.3 µM) was 73%. It also gave a viability, T/C (second compound 0.03 µM, first compound 0.949 µM) of 25.3%, a viability, T/C (second compound 0.03 µM, first compound 3 µM) of 8.57% and a viability, T/C (second compound 0.0949 µM, first compound 0.00949 µM) of 66.6%. It also gave a viability, T/C (second compound 0.0949 µM, first compound 0.03 µM) of 76.2%, a viability, T/C (second compound 0.0949 µM, first compound 0.0949 µM) of 85.2% and a viability, T/C (second compound 0.0949 µM, first compound 0.3 µM) of 31.2%. The viability, T/C (second compound 0.0949 µM, first compound 0.949 µM) was 7.66%, the viability, T/C (second compound 0.0949 µM, first compound 3 µM) was 5.05% and the viability, T/C (second compound 0.3 µM, first compound 0.00949 µM) was 53.1%. The viability, T/C (second compound 0.3 µM, first compound 0.03 µM) was 60.9%, the viability, T/C (second compound 0.3 µM, first compound 0.0949 µM) was 47.4% and the viability, T/C (second compound 0.3 µM, first compound 0.3 µM) was 9.5%. For the same compound, the viability, T/C (second compound 0.3 µM, first compound 0.949 µM) was 3.88% and the viability, T/C (second compound 0.3 µM, first compound 3 µM) was 2.4%.
For `[2H]c1nc(C)nc([2H])c1-c1cc(NC[C@@H](C)c2cccc3c(C(=O)NC)ccnc23)ncn1` + COc1cc2c(cc1O)CCNC21CSC2c3c(OC(C)=O)c(C)c4c(c3C(COC1=O)N1C(O)C3Cc5cc(C)c(OC)c(O)c5C(C21)N3C)OCO4, the IC50 (second compound 30 pM) was over 10000 nM, the IC50 (second compound 94.9 pM) was over 10000 nM and the IC50 (second compound 0.0003 µM) was over 10000 nM. The IC50 (second compound 0.000949 µM) was 4450 nM, the IC50 (second compound 0.003 µM) was under 31.6 nM and the viability, T/C [1] was 98.3%. It also gave a viability, T/C [2] of 98.8%, a viability, T/C [3] of 96.3% and a viability, T/C [4] of 105%. The viability, T/C [5] was 102%, the viability, T/C [6] was 98.3% and the viability, T/C [7] was 102%. For the same compound, the viability, T/C [8] was 100%, the viability, T/C [9] was 110% and the viability, T/C [10] was 101%. The viability, T/C [11] was 94.6%, the viability, T/C [12] was 88% and the viability, T/C [13] was 72.8%. It also gave a viability, T/C [14] of 68.8%, a viability, T/C [15] of 66.9% and a viability, T/C [16] of 73.3%. For the same compound, the viability, T/C [17] was 73.4%, the viability, T/C [18] was 69.6% and the viability, T/C [19] was 59%. The viability, T/C [20] was 58.7%, the viability, T/C [21] was 55.9% and the viability, T/C [22] was 57.4%. For the same compound, the viability, T/C [23] was 50.7%, the viability, T/C [24] was 45.8% and the viability, T/C [25] was 0.64%. For the same compound, the viability, T/C [26] was 0.73%, the viability, T/C [27] was 0.53% and the viability, T/C [28] was 0.45%. For the same compound, the viability, T/C [29] was 0.55% and the viability, T/C [30] was 1.03%.
`CC(C)n1c(=O)n(C)c2cnc3cc(F)c(-c4ccc(OCCCN5CCCCC5)nc4)cc3c21` + COc1cc2c(cc1O)CCNC21CSC2c3c(OC(C)=O)c(C)c4c(c3C(COC1=O)N1C(O)C3Cc5cc(C)c(OC)c(O)c5C(C21)N3C)OCO4 showed an IC50 (second compound 30 pM) of over 10000 nM, an IC50 (second compound 94.9 pM) of 9080 nM and an IC50 (second compound 0.0003 µM) of 4840 nM. The IC50 (second compound 0.000949 µM) was 1990 nM, the IC50 (second compound 0.003 µM) was under 31.6 nM and the viability, T/C [1] was 104%. It also gave a viability, T/C [2] of 107%, a viability, T/C [3] of 95.9% and a viability, T/C [4] of 104%. The viability, T/C [5] was 94.1%, the viability, T/C [6] was 51.2% and the viability, T/C [7] was 104%. The viability, T/C [8] was 103%, the viability, T/C [9] was 98% and the viability, T/C [10] was 103%. For the same compound, the viability, T/C [11] was 89.3%, the viability, T/C [12] was 46.1% and the viability, T/C [13] was 64.2%. It also gave a viability, T/C [14] of 67.4%, a viability, T/C [15] of 65.2% and a viability, T/C [16] of 68.3%. It also gave a viability, T/C [17] of 61.2%, a viability, T/C [18] of 30.1% and a viability, T/C [19] of 57.3%. The viability, T/C [20] was 54.5%, the viability, T/C [21] was 54.7% and the viability, T/C [22] was 53.9%. For the same compound, the viability, T/C [23] was 47.3%, the viability, T/C [24] was 11.1% and the viability, T/C [25] was 0.74%. For the same compound, the viability, T/C [26] was 0.77%, the viability, T/C [27] was 0.6% and the viability, T/C [28] was 0.82%. It also gave a viability, T/C [29] of 0.66% and a viability, T/C [30] of 0.99%.
Work on `CC1COCCN1c1cc(-c2ccnn2C)c2ccnc(-c3ccn[nH]3)c2n1` (stereo not given) + Cn1nnc2c(C(N)=O)ncn2c1=O yielded an IC50 (second compound 1 µM) of 159 nM, an IC50 (second compound 3.16 µM) of 77.4 nM and an IC50 (second compound 10 µM) of under 31.6 nM. For the same compound, the IC50 (second compound 31.6 µM) was under 31.6 nM, the IC50 (second compound 100 µM) was under 31.6 nM and the viability, T/C (second compound 1 µM, first compound 0.0316 µM) was 80.7%. The viability, T/C (second compound 1 µM, first compound 0.1 µM) was 53.9%, the viability, T/C (second compound 1 µM, first compound 0.316 µM) was 41.1% and the viability, T/C (second compound 1 µM, first compound 1 µM) was 26.6%. The viability, T/C (second compound 1 µM, first compound 3.16 µM) was 11.2%, the viability, T/C (second compound 1 µM, first compound 10 µM) was 5.06% and the viability, T/C (second compound 3.16 µM, first compound 0.0316 µM) was 59%. The viability, T/C (second compound 3.16 µM, first compound 0.1 µM) was 47.8%, the viability, T/C (second compound 3.16 µM, first compound 0.316 µM) was 33.9% and the viability, T/C (second compound 3.16 µM, first compound 1 µM) was 22.4%. The viability, T/C (second compound 3.16 µM, first compound 3.16 µM) was 11.9%, the viability, T/C (second compound 3.16 µM, first compound 10 µM) was 4.44% and the viability, T/C (second compound 10 µM, first compound 0.0316 µM) was 46.1%. The viability, T/C (second compound 10 µM, first compound 0.1 µM) was 36.3%, the viability, T/C (second compound 10 µM, first compound 0.316 µM) was 29.4% and the viability, T/C (second compound 10 µM, first compound 1 µM) was 18.4%. For the same compound, the viability, T/C (second compound 10 µM, first compound 3.16 µM) was 9.76%, the viability, T/C (second compound 10 µM, first compound 10 µM) was 3.5% and the viability, T/C (second compound 31.6 µM, first compound 0.0316 µM) was 41.7%. For the same compound, the viability, T/C (second compound 31.6 µM, first compound 0.1 µM) was 33.8%, the viability, T/C (second compound 31.6 µM, first compound 0.316 µM) was 24.1% and the viability, T/C (second compound 31.6 µM, first compound 1 µM) was 16.8%. The viability, T/C (second compound 31.6 µM, first compound 3.16 µM) was 7.93%, the viability, T/C (second compound 31.6 µM, first compound 10 µM) was 3.99% and the viability, T/C (second compound 100 µM, first compound 0.0316 µM) was 34.3%. The viability, T/C (second compound 100 µM, first compound 0.1 µM) was 27.8%, the viability, T/C (second compound 100 µM, first compound 0.316 µM) was 21.5% and the viability, T/C (second compound 100 µM, first compound 1 µM) was 12.3%. It also gave a viability, T/C (second compound 100 µM, first compound 3.16 µM) of 6.89% and a viability, T/C (second compound 100 µM, first compound 10 µM) of 3.01%.
